Assay results from article PMC9929129, “Towards Translation of PqsR Inverse Agonists: From In Vitro Efficacy Optimization to In Vivo Proof‐of‐Principle” (Advanced Science, 2023).
Converted amounts (≈) assume the structure as drawn.

Assays:
[1] = molecular target: T1, P2X4 receptor (Homo sapiens, UniProt Q99571); assay: Ion channel profiling at Charles River: P2X4; assay type: cell-based; conditions: expressed in HEK293 cells; read-out: ESTIMATED IC50
T1 construct: host or cells: HEK293 cells
Description: 1.4.3 Ion Channel Profiling at Charles River
Table S9. Compound 24 was tested against the following ion channels at Charles River Laboratories. […]
FLIPR Assay expressed in HEK293 cells
GABAA α5/β3/γ2 ionotropic receptor (human GABRA5, GABRB3, >30 and GABRG2 genes, expressed in HEK293 cells
P2X4 receptor (human P2RX4 gene) expressed in HEK293 cells >30 […]
An increase in the number of colonies of at least two-fold over baseline (mean + SD of the vehicle control) and a dose response indicate a positive response. An […]
different from the vehicle control.
Where indicated, S9 fraction from the livers of Aroclor 1254-treated rats were included in the incubation at a final concentration of 4.5%. A NADPH-regenerating system was also included to ensure a steady supply of reducing equivalents.

[2] = molecular target: T2, V1a (h) (Homo sapiens, UniProt P37288); assay: Cerep panel binding assay; conditions: agonist radioligand
T2 construct: purchased Eurofins Pharma Discovery (Cerep) SafetyScreen44 Panel, ITEM P270
Description: 1.4 Safety Pharmacology of Compound 24
1.4.1 Cerep panel (Eurofins)
Compound 24 was further profiled for its off-target interactions against a panel of 44 targets. The
screening was done by Eurofins Pharma Discovery within the SafetyScreen44 Panel (Cerep, ITEM
P270). In all assays binding/functional inhibition was determined at 10 µM.
Table S6. […]
V1a (h) (agonist radioligand) 7.6

[3] = Mouse maximum tolerated dose (MTD) study; assay type: in vivo, NMRI mice
Description: 1.4.6 Mouse Maximum tolerated dose (MTD) study (Aurigon)
The maximum tolerated dose of 24 in NMRI mice was conducted and analyzed at CRO ATRC Aurigon Toxicological Research Center Ltd, Hungary. The study was conducted in accordance with Standard Operating Procedures of ATRC and the requirements of EEC Directive 2001/83/EC of the European Parliament and of the Council of November 6, 2001 on the Community Code relating to Medicinal Products for human use (Official Journal L -311,28/11/2004, p.67–128) as amended by EEC Directive 2004/27/EC of the European Parliament and the Council of March 31, 2004 amending Directive 2001/83/EC on the Community code relating to medicinal products for human use (Official Journal L - 136, 30/04/2004, p. 34-57), ICH Guideline M3(R2) “Guidance on Nonclinical Safety Studies for the Conduct of Human Clinical Trials and Marketing Authorization for Pharmaceuticals”, ICH Guideline S3A “Toxicokinetics: The Assessment of Systemic Exposure in Toxicity Studies”, OECD Guideline for the Testing of Chemicals: Toxicokinetics, (OECD 417, 2010). This study was conducted in compliance with the principles of Hungarian Act 1998: XXVIII regulating animal protection (latest modified by Act 2011 CLVIII) and in Government Decree 40/2013 on animal experiments. Handling and care of the animals will be conducted according to the Guide for the Care and Use of Laboratory Animals, NRC, […]
Animals were 6 weeks old and weighed 27–34 g. 24 was applied subcutaneously in a formulation […]
48 h. As no clinical findings were observed, 30 mg/kg was then applied to the next group. Likewise, 60 mg/kg were applied 48 h after. Mortality was observed twice a day. Clinical observation was performed directly after dosing, 1 h, 2 h, 4 h, 24 h and 48 h after administration. Body weight was registered prior to treatment and daily after the dosing for 48 h. For serum concentration determination, 100 μL blood were collected from each animal at 0.5 h and 4 h time points after the administration, processed to plasma and analyzed using HPLC-MS/MS at HZI. Each group consisted of 5 male and 5 female mice, 2 of which were used for blood collection.

[4] = In vivo PK study, IP, SC and PO; conditions: male, CD-1, mouse, plasma, 20 mg/kg
Description: For pharmacokinetic experiments via the intraperitoneally (IP), subcutaneously (SC) and perorally
(PO) route 4 weeks old outbred male CD-1 mice (Charles River, Netherlands) were used.
were administered 24 at 20 mg/kg intraperitoneally (IP), subcutaneously (SC) and perorally (PO).
About 20 μL of whole blood was collected serially from the lateral tail vein at time points t = 0.25
(only IP and SC), 0.5, 1, 2, 4, and 8 h post administration.
was collected from the heart. Whole blood was collected into Eppendorf tubes coated with 0.5 M EDTA and immediately spun down at 13,000 rpm for 10 min at 4 °C. The plasma was transferred into
a new Eppendorf tube and then stored at −80 °C until analysis.

[5] = Kinetic turbidimetric aqueous solubility; conditions: PBS buffer, kinetic from dmso stock

T1 sequence (Q99571 whole entry): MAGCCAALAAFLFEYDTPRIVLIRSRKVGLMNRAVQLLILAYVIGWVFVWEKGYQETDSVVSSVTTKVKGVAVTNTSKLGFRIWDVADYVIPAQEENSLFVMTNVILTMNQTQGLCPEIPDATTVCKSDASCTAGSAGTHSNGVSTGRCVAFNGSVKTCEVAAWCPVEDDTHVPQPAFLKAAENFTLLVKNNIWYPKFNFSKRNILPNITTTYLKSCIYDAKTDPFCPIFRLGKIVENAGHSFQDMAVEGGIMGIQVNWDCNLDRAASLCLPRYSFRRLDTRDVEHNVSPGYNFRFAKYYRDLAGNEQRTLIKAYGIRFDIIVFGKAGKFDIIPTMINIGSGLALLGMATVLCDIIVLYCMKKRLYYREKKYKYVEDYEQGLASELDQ
T2 sequence (P37288 whole entry): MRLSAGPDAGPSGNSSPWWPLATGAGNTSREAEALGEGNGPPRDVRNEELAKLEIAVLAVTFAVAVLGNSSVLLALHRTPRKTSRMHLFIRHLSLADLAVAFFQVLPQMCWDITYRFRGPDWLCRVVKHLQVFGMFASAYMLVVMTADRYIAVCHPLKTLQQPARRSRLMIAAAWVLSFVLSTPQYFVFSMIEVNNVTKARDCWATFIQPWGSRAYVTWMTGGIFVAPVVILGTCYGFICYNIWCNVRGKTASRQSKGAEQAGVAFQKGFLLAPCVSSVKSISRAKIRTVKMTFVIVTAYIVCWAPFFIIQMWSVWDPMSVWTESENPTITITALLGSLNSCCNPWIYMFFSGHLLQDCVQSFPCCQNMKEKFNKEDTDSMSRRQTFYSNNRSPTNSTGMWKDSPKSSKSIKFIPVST

SMILES: CC(C)Oc1ccc(-c2ncc(CNc3ccnc(C(F)(F)F)c3)cn2)cc1Cl [Compound 24]
- IC50 [1]: > 30 µM
- inhibition at 10 µM [2]: 7.6%
- clinical findings ([3]; 60 mg kg^−1 subcutaneous, slight, transient, at 2 and 4 h): piloerection and decreased activity (3 of 10 mice)
- mortality or loss of body weight ([3]; 10, 30, and 60 mg kg^−1 subcutaneous, during 48 h): no mortality or loss of body weight
- clinical findings ([3]; 10 and 30 mg kg^−1 subcutaneous): devoid of any clinical findings
- tolerability in male and female mice ([3]; up to 60 mg kg^−1 subcutaneous): well tolerated
- bioavailability ([4]; intraperitoneal): ~36%
- AUC(0-t) ([4]; ip): 557 µg·h/mL
- CL/F ([4]; ip): 1.7 ± 1.8 mL/min/kg
- Cmax ([4]; ip): 65.8 µg/mL
- Tmax ([4]; ip): 1 h
- Vd/F ([4]; ip): 0.25 ± 0.3 L/kg
- bioavailability ([4]; ip): 36.1%
- half-life ([4]; ip): 101 min
- CL/F ([4]; po): 1.58 ± 0.4 mL/min/kg
- Cmax ([4]; po): 45.6 µg/mL
- Tmax ([4]; po): 0.83 ± 0.2 h
- Vd/F ([4]; po): 0.25 L/kg
- bioavailability ([4]; po): 13.8%
- half-life ([4]; po): 114 ± 30 min
- AUC(0-t) ([4]; sc): 363 µg·h/mL
- CL/F ([4]; sc): 0.93 ± 0.1 mL/min/kg
- Tmax ([4]; sc): 2 h
- Vd/F ([4]; sc): 0.12 L/kg
- bioavailability ([4]; sc): 23.5%
- half-life ([4]; sc): 90.6 min
- solubility kinetic at 5 min [5]: 47.2 µM (≈ 20 µg/mL)
